Data published in US20250270648A1, “MOLECULAR SIGNATURE FOR ASSESSING THE RESPONSIVENESS OF CANCER TO MITOCHONDRIA-TARGETED ANTIOXIDANTS” (UNIVERSITÉ CATHOLIQUE DE LOUVAIN, priority 2021, published 2025).

Key:
MDA-MB-231 cells = assay: RNA sequencing; format: cell-based, human; settings: MitoQ 500 nM, 48 h; |log 2 fold change|>1 and P<0.01
Protocol: (§1) MDA-MB-231 and SkBr3 cancer cells were treated ±MitoQ for 48 h. Total mRNA was then extracted using the NucleoSpin RNA kit (Macherey-Nagel®), including DNAse treatment in the intermediary steps. mRNAs were quantified using the Qubit BR dsRNA assay kit (Thermo Fisher Scientific®), and mRNA integrity was evaluated on the Agilent 2100 Bioanalyzer using the RNA 6000 nano kit (Agilent®). All samples had RNA integrity number values ≥7.5. Libraries from control and treated samples were prepared starting from 150 ng of total mRNA using the KAPA RNA HyperPrep Kit with RiboErase (HMR) kit (KAPA Biosystems®) following the manufacturer's recommendations (KR1351—v1.16). Libraries were equimolarly pooled and sequenced on a single lane of an Illumina® NovaSeq 6000 platform. All libraries were sequenced at a depth of >50 million paired-end reads (2×100 bp reads) per sample. All sequencing data were analyzed using the Automated Reproducible MOdular workflow for preprocessing and differential analysis of RNAseq data (ARMOR) pipeline. In this pipeline, reads underwent a quality check using FastQC. Quantification and quality control results were summarized in a MultiQC report before being mapped using Salmon to the transcriptome index that was built using all Ensembl cDNA sequences obtained in the Homo_sapiens.GRCh38.cdna.all.fa file. Then, estimated transcript abundances from Salmon were imported into R using the tximeta package, and analyzed for differential gene expression with edgeR. To get a robust signature, only genes with |log 2 Fold Change|>1 and P<0.01 were retained.

SkBr3 cells = assay: RNA sequencing; format: cell-based, human; settings: MitoQ 500 nM, 48 h; |log 2 fold change|>1 and P<0.01
Protocol: as §1

[1] = test system: human MCF7 breast cancer cells; assay: Cell viability, CellTiter-Glo; format: cell-based; settings: increasing doses of DXR ±100 nM MitoQ, 48 h
Protocol: Cells were plated in 96-well plates and left to adhere for 16 hours. In order to avoid reaching full confluence at the endpoint, starting cell count was defined according to doubling time and the duration of the experiment. Following adhesion, cells were treated with the indicated compounds for 48 h, after which staining was done with a CellTiter-Glo Luminescent Cell Viability assay (Promega®, catalogue #G7570), according to supplier's instructions. This method is based on the quantification of intracellular ATP levels.

COC1=C(OC)C(=O)C(CCCCCCCCCC[P+](c2ccccc2)(c2ccccc2)c2ccccc2)=C(C)C1=O [MitoQ]
number of downregulated transcripts (MDA-MB-231 cells): 1,943
number of upregulated transcripts (MDA-MB-231 cells): 2,153
number of downregulated transcripts (SkBr3 cells): 5
number of upregulated transcripts (SkBr3 cells): 20
DXR-induced cell killing [1]: did not interfere
